Experiments:
[1] = tested on: HUVECs; assay: NO release from HUVECs incubated with treated, oxidized sdLDL samples (Example 12); assay type: cell-based, human; settings: EPA-treated
Method: (§1) All samples, with the exception of non-oxidized sdLDL controls, were subjected to copper-induced oxidation for 1 hour. Human umbilical vein endothelial cells (HUVECs) were incubated with the various sdLDL samples, stimulated with calcium, and monitored for nitric oxide (NO) and peroxynitrite (ONOO^−) release using nanosensor technology.

[2] = Lipid hydroperoxide (LOOH) formation in cholesterol-enriched model membranes under autoxidation, CHOD-iodide assay (Example 3); assay type: biochemical; settings: EPA to lipids 1:30, C/P 0.6:1
Method: An experiment was conducted to test EPA in model membranes enriched with PUFAs and cholesterol at levels that reproduce disease or high CV-risk conditions (i.e., hypercholesterolemia). […] Levels of lipid hydroperoxides were also measured in cholesterol-enriched membrane prepared in the absence of EPA as a control. […] CHOD-iodide color reagent (stock) was prepared according to a procedure modified from El-Saadani et […], Goher […], Jurgens G. A spectrophotometric assay for lipid peroxides in serum lipoproteins using commercially available reagent. J. Lipid. […] Membrane samples consisting of DLPC±cholesterol were prepared as follows. Component lipids (in chloroform) were transferred to 13×100 mm test tubes and shell-dried under a steady stream of nitrogen gas while vortex mixing. The lipid was co-dried with EPA. Residual solvent was removed by drying for a minimum of 3 h under vacuum. […] Absorbances were measured against a CHOD blank at 365 nm using a Beckman DU-640 spectrophotometer. The CHOD colorimetric assay is based on the oxidation of iodide (I^-) by lipid hydroperoxides (LOOH) and proceeds according to the following reaction scheme: […]3^- The quantity of triiodide anion (I3^-) liberated in this reaction is directly proportional to the amount of lipid hydroperoxides present in the membrane sample.

[3] = LOOH formation in glucose-treated model membranes, EPA versus EA and ETE (Example 5); assay type: biochemical; settings: 72 and 96 hr
Method: An experiment was conducted to compare the ability of EPA to prevent lipid hydroperoxide formation in model membranes treated with glucose to two other 20-carbon fatty acids: eicosanoic acid (“EA,” also referred to as arachidic acid, C20:0) and eicosatrienoic acid (“ETE,” C20:3, n−3). All MLV samples were subjected to time-dependent autoxidation by incubating at 37° C. in an uncovered, shaking water bath. This method allows lipid peroxidation to occur gradually without requiring the use of exogenous initiators. Small aliquots (5-100 μL) of each sample were removed, immediately following MLV preparation (0 hr) and after exposing samples to oxidative conditions for 72 or 96 hr, and combined with 1.0 mL of activated CHOD-iodide color reagent. Aliquot volume was reduced with each successive time point to ensure that spectrophotometric readings were within the optimal adsorption range. Test samples were covered and incubated in darkness at room temperature for at least 4 hr. Sample absorbances were then measured against a CHOD blank at 365 nm using a Beckman DU-640 spectrophotometer. The CHOD colorimetric assay is based on the oxidation of iodide (I^−) by lipid hydroperoxide (LOOH) to form triiodide (I3^−), the quantity of which is directly proportional to the amount of LOOH present in the lipid sample. The molar absorptivity (E) of I3^− is 2.46×10^4 M^−1 cm^−1 at 365 nm.

[4] = tested on: sdLDL isolated from human plasma; assay: Copper-induced sdLDL oxidation 1 hour (Example 12); assay type: biochemical; settings: 10.0 μM; copper-induced oxidation 1 hour
Method: as §1

[5] = tested on: sdLDL from plasma of healthy volunteers; assay: Time-dependent sdLDL oxidation, MDA formation over 4 hours (Example 13); assay type: biochemical, human; settings: each at 10 μM; 4 hours; 10 μM CuSO4
Method: sdLDL was isolated from the plasma of healthy volunteers by iodixanol density gradient centrifugation and adjusted to a final apolipoprotein concentration of 2 mg/mL. Sample aliquots (100 μg apolipoprotein) were incubated with EPA, DHA, or EPA+DHA (each at 10 μM) for 30 minutes at 37° C. and then treated with 10 μM CuSO4 to initiate lipid oxidation. sdLDL oxidation was measured spectrophotometrically as a function of malondialdehyde (MDA) formation at various intervals over 4 hours. Vitamin E was also tested as a positive control. Experiments were conducted in triplicate and reported as mean±SD.

CC/C=C\C/C=C\C/C=C\C/C=C\C/C=C\CCCC(=O)O [EPA, cis-5,8,11,14,17-eicosapentaenoic acid]
NO release increased as compared to non-oxidized sdLDL treatment [1]: 23% | NO release increased as compared to oxidized LDL treatment [1]: 53% | LOOH levels ([2]; after autoxidation 37° C. 72 hours): 728 ± 30 µM | reduced LOOH levels compared to untreated controls ([2]; autoxidation 37° C. 72 hours): greater than 90% | LOOH formation compared to vehicle only, glucose only, glucose and EA, glucose and ETE [3]: significantly less LOOH formation | reduced sdLDL oxidation compared to vehicle treatment alone [4]: > 90% | MDA levels [5]: 0.8 ± 0.03 µM | reduction in sdLDL oxidation (MDA levels) [5]: 92%

From patent US20200237700A1, “METHODS OF REDUCING OR PREVENTING OXIDATION OF SMALL DENSE LDL OR MEMBRANE POLYUNSATURATED FATTY ACIDS” (Amarin Pharmaceuticals Ireland Limited, priority 2015, published 2020)
